Assay results reported in patent publication US20090036461A1, “Use of Azabicyclo Hexane Derivatives” (priority 2005, published 2009).

What was measured:
male rats [1] = experiment: sexual incentive motivation test in male rats after acute administration; assay type: in vivo, Wistar rats; conditions: -1 hour; for Time sexual incentive zone (s) / Time social incentive zone / n. of visits social incentive zone / n. of visits to sex. Incentive zone: male rats, n = 9, mean ± s.e.m.
Description: (§1) Background: In order to evaluate the effect on natural rewards and to potentially differentiate this approach compared with clinically active gold standards, the effect of the title compound (0.03, 0.3 and 3 mg/kg i.p.; −1 hour, prepared in an analogous way with Example 40) on sexual desire and consummatory performance was evaluated in the rat after acute administration. The effect of the title compound was assessed according to a Latin squared experimental design in male (about 300 g upon arrival) and female (250 g upon arrival) Wistar rats.
(§2) Method—Male rats, sexually experienced were treated with the title compound and submitted 1-hr later to a sexual incentive motivation test (10 minutes) in which male rats were singly exposed to receptive female and active male incentives (Agmo A., Journal of Comparative Psychology. 117(1), March 2003, 3-14). The following parameters were scored: (1) time spent in the incentive zones (close to the incentive cage); (2) number of visits to the zones, and (3) preference score (time spent in the sexual incentive zone/(time in the sexual incentive zone+time in the social incentive zone)). Immediately after the incentive motivation test each subject was transferred to an observation cage in the presence of a receptive female and its copulatory behaviour was then recorded until the end of the 1st post-ejaculatory interval. In the observation cage, the following behavioural parameters were recorded: (1) mount latency (time from the introduction of the female until the first mount with pelvic thrusting); (2) intromission latency (time from the introduction of the female until the first mount with vaginal penetration); (3) ejaculation latency (time from the 1st intromission until ejaculation); (4) post-ejaculatory interval (time from ejaculation until the following intromission); (5) number of mounts, and (6) number of intromission.
(§3) Results—Data are expressed as mean ±s.e.m.

male rats [2] = experiment: copulatory (consummatory) behaviour of male rats with a receptive female; assay type: in vivo, Wistar rats; conditions: -1 hour; for Ejaculation latency / Intromission latency / Mount latency / Post ejaculatory interval / n. of intromissions / n. of mounts: male rats, n = 9, mean ± s.e.m.
Description: as §1, §2, §3

D3 = D3 (Homo sapiens, UniProt P35462); experiment: functional pKi (fpKi) at D3, comparison of separated enantiomers; assay type: biochemical; conditions: difference in fpKi between the two separated enantiomers of the same example
D3, sequence (P35462 whole entry): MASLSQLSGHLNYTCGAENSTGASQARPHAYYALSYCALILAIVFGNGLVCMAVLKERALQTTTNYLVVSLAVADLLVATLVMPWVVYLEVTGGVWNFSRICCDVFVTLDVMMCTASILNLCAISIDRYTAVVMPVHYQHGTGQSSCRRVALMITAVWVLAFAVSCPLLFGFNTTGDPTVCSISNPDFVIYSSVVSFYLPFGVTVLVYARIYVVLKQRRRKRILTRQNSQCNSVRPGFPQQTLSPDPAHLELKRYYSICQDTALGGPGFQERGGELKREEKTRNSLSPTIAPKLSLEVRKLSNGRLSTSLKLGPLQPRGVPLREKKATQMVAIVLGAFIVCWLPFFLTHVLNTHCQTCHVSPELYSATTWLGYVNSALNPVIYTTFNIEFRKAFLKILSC

[3] = 0.03, 0.3 and 3 mg/kg i.p., result in words

In the case of `Cc1ncoc1-c1nnc(SCCCN2C[C@@H]3C[C@]3(c3ccc(C(F)(F)F)cc3F)C2)n1C.Cl` (single isomer, unassigned) [Example 40], the “effect on sexual desire of male rats exposed to sexual and social stimuli” value (male rats [1]; [3]) was “did not affect sexual desire”, the “Time sexual incentive zone (s)” value (male rats [1]; 0.03 mg/kg i.p.) was 367.57 ± 23.53++ s and the “Time social incentive zone” value (male rats [1]; 0.03 mg/kg i.p.) was 73.69 ± 12.48 s. The “n. of visits social incentive zone” value (male rats [1]; 0.03 mg/kg i.p.) was 15.33 ± 1.60, the “n. of visits to sex. Incentive zone” value (male rats [1]; 0.03 mg/kg i.p.) was 23.44 ± 1.95++ and the “Time sexual incentive zone (s)” value (male rats [1]; 0.3 mg/kg i.p.) was 335.12 ± 32.47++ s. The “Time social incentive zone” value (male rats [1]; 0.3 mg/kg i.p.) was 86.84 ± 13.38 s, the “n. of visits social incentive zone” value (male rats [1]; 0.3 mg/kg i.p.) was 17.44 ± 2.49 and the “n. of visits to sex. Incentive zone” value (male rats [1]; 0.3 mg/kg i.p.) was 23.89 ± 2.06++. For the same compound, the “Time sexual incentive zone (s)” value (male rats [1]; 3 mg/kg i.p.) was 355.91 ± 13.70++ s, the “Time social incentive zone” value (male rats [1]; 3 mg/kg i.p.) was 76.83 ± 10.05 s and the “n. of visits social incentive zone” value (male rats [1]; 3 mg/kg i.p.) was 14.00 ± 1.85. For the same compound, the “n. of visits to sex. Incentive zone” value (male rats [1]; 3 mg/kg i.p.) was 21.78 ± 1.72++, the “effect on ejaculation patterns” value (male rats [2]; [3]) was “significant increase in the number of mounts, ejaculation latency and post-ejaculatory interval” and the “Ejaculation latency” value (male rats [2]; 0.03 mg/kg i.p.) was 202.2 ± 19.6 s. For the same compound, the “Intromission latency” value (male rats [2]; 0.03 mg/kg i.p.) was 6.3 ± 0.8 s, the “Mount latency” value (male rats [2]; 0.03 mg/kg i.p.) was 4.6 ± 0.8 s and the “Post ejaculatory interval” value (male rats [2]; 0.03 mg/kg i.p.) was 403.0 ± 37.4 s. The n. of intromissions (male rats [2]; 0.03 mg/kg i.p.) was 15.8 ± 1.3, the n. of mounts (male rats [2]; 0.03 mg/kg i.p.) was 3.4 ± 0.7 and the “Ejaculation latency” value (male rats [2]; 0.3 mg/kg i.p.) was 228.3 ± 53.3 s. The “Intromission latency” value (male rats [2]; 0.3 mg/kg i.p.) was 7.0 ± 1.1 s, the “Mount latency” value (male rats [2]; 0.3 mg/kg i.p.) was 5.3 ± 0.8 s and the “Post ejaculatory interval” value (male rats [2]; 0.3 mg/kg i.p.) was 455.3 ± 73.4 s. The n. of intromissions (male rats [2]; 0.3 mg/kg i.p.) was 15.6 ± 1.5, the n. of mounts (male rats [2]; 0.3 mg/kg i.p.) was 2.3 ± 0.8 and the “Ejaculation latency” value (male rats [2]; 3 mg/kg i.p.) was 272.8 ± 41.6 s. The “Intromission latency” value (male rats [2]; 3 mg/kg i.p.) was 8.8 ± 2.0 s, the “Mount latency” value (male rats [2]; 3 mg/kg i.p.) was 6.4 ± 1.5 s and the “Post ejaculatory interval” value (male rats [2]; 3 mg/kg i.p.) was 485.1 ± 67.3 s. The n. of intromissions (male rats [2]; 3 mg/kg i.p.) was 16.8 ± 2.1, the n. of mounts (male rats [2]; 3 mg/kg i.p.) was 4.8 ± 1.2 and the “fpKi (D3) higher than the other enantiomer” value (D3) was over 1 log-unit.
